Test results: patent publication US20200072837A1, “METHODS FOR PREVENTING, MODULATING AND/OR REDUCING CARDIOVASCULAR DISEASE” (OP-T LLC, priority 2018, published 2020)

What was measured:
[1] = tested on: CD3+CD4+CD40+ splenic cells (Th40 cells); assay: In vitro cytokine production of splenic Th40 cells, flow cytometry; format: cell-based, mouse; conditions: splenic lymphocytes of ApoE and C57BL/6 mice, overnight with varying concentrations of peptide
Experimental: Spleens from ApoE mice and C57BL/6 mice were processed for lymphocytes. ApoE−/− and C57BL/6 mice were fed a 60% high fat diet (research diet) for 1 week. Splenic lymphocytes were treated with 6-mer in vitro for 24 hours. Cells were placed in media overnight in the presence of varying concentrations of 6-mer peptides. The following morning, Brefeldin A was administered for 4 hours. All cells were stained for CD3, CD4, CD40 (Th40 cells) and measured by use of flow cytometry for their production of IL2, INFγ, and IL17a.
Spleens from ApoE mice and C57BL/6 mice were processed for lymphocytes, placed in media overnight in the presence of varying concentrations of KGYY6 peptide. BrefeldinA was administered for four hours.

ApoE-/- mice [2] = assay: Atherosclerotic changes in ApoE-/- mice on high fat diet (en-face Sudan IV, Paigen method, trichrome); format: in vivo, mouse
Experimental: ApoE−/− mice were fed a high fat diet for 16 weeks. Mice were randomly assigned to receive dose of 1 mg/kg of KGYY6 (6-mer—SEQ ID NO:4) by IV tail injection, once a week for a period of 4 weeks. Control mice received vehicle only. Atherosclerosis was investigated by several methods. […] FIG. 28A is an image of KGYY6 treated aortic en-face Sudan IV staining and FIG. 28B is an image of control (untreated) aortic en-face Sudan staining.
Further, measurement of plaque area and morphology was performed using the Paigen method. This method obtains sequential 5 um aortic cross sections from the aortic root beginning at the valve leaflets into the ascending aorta. At 50 um intervals, slides are stained after which the area of atherosclerotic lesion is measured. Individual plaque area measurements are plotted against the micrometer intervals and a curve is established, with the area under the curve (AUC) giving the total volume of plaque.
ApoE−/−mice (n=16, 4 male and 4 female per group), fed a 60% high fat diet (Research Diets) for 16 weeks. 8 mice were injected with 1 mg/kg KGYY6 and […] with vehicle alone. Glucose tolerance testing (GTT) was performed by fasting 6 hours, followed by intraperitoneal injection of 1 g/kg body weight glucose in water. Both blood glucose and serum insulin were measured at 0, 15 min, 30 min, 60 min and 2 hours.

ApoE-/- mice [3] = assay: LDL cholesterol in ApoE-/- mice; format: in vivo, mouse; conditions: 1 mg/kg IV once a week for 4 weeks, treated versus untreated
Experimental: In this study, six ApoE−/− mice received a normal chow diet from 0 to 20 weeks of age. At 20 weeks of age, three mice were randomly assigned to receive dose of 1 mg/kg of KGYY6 (6-mer—SEQ ID NO:4) by IV tail injection, once a week for a period of 4 weeks. Control mice received vehicle only.

NOD mice [4] = assay: Development of diabetes in NOD mice treated with CD154 peptides; format: in vivo, mouse; conditions: weekly iv injection from 6 weeks of age, diabetic = blood glucose above 250 mg/dL on 3 consecutive measures
Experimental: (§1) Peptides were designed based on the amino acid sequence of mouse CD154 protein (SEQ ID NO:1) in the SwissPro database. […] Weekly after the initial injection, another 100 ug of peptide (or 100 ul of saline in the case of the Control mice) was injected into the tail vein. At 10 weeks of age, mice were monitored for diabetes, as indicated by a blood glucose level greater than 250 mg/dL for three consecutive days. During this time, blood was also taken from the tail vein, or by sub-mandibular venal puncture, and the level of CD4+ and CD8+ cells determined by flow cytometry using antibodies for CD4 protein and CD8 protein.
NOD mice at 6 weeks of age were injected weekly iv with 25 ug (1 mg/kg) of each peptide through 45 weeks. Each cohort included 10 animals. Blood glucoses were measured and levels at 250 mg/dl or higher for 3 consecutive measures were considered diabetic. […] (This is showing in FIG. 1).

B cells = assay: Binding of FITC-labeled 15-mer peptide to B cells, flow cytometry; parameters: species or system mouse; conditions: B cells from spleens of NOD mice, 90% CD40 positive
Experimental: B cells were isolated from the spleens of NOD mice. Sorted MHC-II+ cells were purified from total lymphocytes. Cells were stained with FITC-labeled 15 mer peptide, anti-CD40, and B cell markers CD19 and CD21. MHC-II+ cells were gated for CD19+ and CD21+ and then 15-mer peptide versus CD40 antibody was measured.

CD40+ T-cells = assay: Binding of FITC-labeled 15-mer peptide to Th40 cells, flow cytometry; parameters: species or system mouse; conditions: lymphocytes of 9 week old NOD mice
Experimental: Total lymphocytes were isolated from 9 week old NOD mice. The lymphocytes were incubated with […], anti-CD8, and an FITC-labeled 15-mer peptide, and then analyzed by flow cytometry. Cells were gated for CD4 (both CD4hi and CD4lo populations were included) and CD4 versus the 15-mer peptide.

ApoE-/- mice [5] = assay: Existing atherosclerotic disease in ApoE-/- mice, 4 weeks of treatment, plaque morphology; format: in vivo, mouse
Experimental: In this study, six ApoE−/− mice received a normal chow diet from 0 to 20 weeks of age. At 20 weeks of age, three mice were randomly assigned to receive dose of 1 mg/kg of KGYY15 (15-mer—SEQ ID NO:7) by IV tail injection, once a week for a period of 4 weeks. Control mice received vehicle only. After 4 weeks of treatment, animals were euthanized then perfused through cardiac puncture with 4% paraformaldehyde. Aortic arches were dissected in surcrose gradient and flash frozen. Approximately fifty, […] longitudinal sections were obtained per mouse. Slides were treated with trichrome stain and analyzed using cellSens software for measurements. Total plaque was measured including 2.5 mm lesser curvature and innominate artery.

ApoE deficient mice = assay: Atherosclerosis in ApoE deficient mice on normal chow, aortic arch analysis; format: in vivo, mouse
Experimental: ApoE deficient mice on a normal chow diet were selected to receive a dose of 1 mg/kg of the 15-mer peptide (SEQ ID NO: 7) by IV tail injection, three times a week over a period of […], beginning at 9 weeks of age and also utilized a control. At 25 weeks, the animals were euthanized, weighed, and then had blood, spleen, and pancreas removed for analysis. The subjects were then perfused through cardiac puncture with 4% paraformaldehyde. Aortic arches were dissected, dehydrated in sucrose gradient and then flash frozen.
FIG. 17 provides an example of the lesser curvature of the aortic arch, defined proximally from the aortic outflow (AO). Of the segments seen in the trichrome stain, an intimal distance of […] was measured distally. The aortic-arch wall area subtended by this 2.5 mm stretch of the intima was calculated for each section of all mice, with maximal area of the inner-aortic-arch wall of each mouse used to compute averages per group. The luminal surface (L), aortic arch (AO), and innominate artery (I) are labelled in this FIG. 17.
Plaque was subdivided based on morphology of early lesions (observable as fatty streaks containing macrophage derived foam cells with varying degrees of lipid accumulation) compared with more advanced fibroatheromas (containing varying degrees of lipid or necrotic core and fibrous caps). All plaque within the designated 2.5 mm segment were included.

NOD mice [6] = assay: Insulin granulation of pancreas in NOD mice after reversal of hyperglycemia; format: in vivo, mouse; conditions: six weeks after reversal of hyperglycemia, versus irrelevant peptide
Experimental: (§2) At the onset of diabetes, six NOD mice were injected with 100 ug/ml of the 15-mer peptide (SEQ ID NO:9), resulting in the reversal of hyperglycemia in 80% of the recipients. Six weeks after reversal of hyperglycemia, mice were sacrificed and the pancreas removed for analysis. The pancreas was fixed, sectioned and then stained using an aldehyde/fuschsin stain that allows detection of insulin granules. Granulation of the tissue was scored as follows: 4=completely granulated; 3=75% of islet granulated; 2=50% of islet granulated, and peri-insulitis; 1=25% of islet granulated; 0=no insulin granules detected.

[7] = Clot study in whole human blood; conditions: dosing levels similar to murine studies
Experimental: Whole human blood was administered the peptide in accordance with similar dosing levels to those used for murine studies.

NOD mice [8] = assay: Reversal of hyperglycemia in already diabetic NOD mice; format: in vivo, mouse
Experimental: Six mice from that had received the 6-mer peptide in Example 1, and that had subsequently developed diabetes, were injected intravenously with 100 ug of the 15-mer peptide. These mice were then given weekly injections of the 15-mer peptide into their tail veins, and their blood glucose levels monitored twice-weekly. The 15-mer peptide was administered for a total of ten weeks, after which the treatment was stopped.
as §2

blood cells = assay: Binding of biotin-conjugated 15-mer peptide to whole blood cells of type-I diabetic and control subjects; parameters: species or system human; conditions: type-I diabetes patients versus non-diabetic controls, absorbance at 405 nm
Experimental: 1 ml of whole blood was obtained from each individual and incubated with biotin-conjugated, 15-mer peptide. The cells were then exposed to horseradish peroxidase (HRP)-avidin, washed and the absorbance at 405 nm determined using a spectrophotometer.

NOD mice [9] = assay: CD4/CD8 ratio in blood of peptide-treated NOD mice by flow cytometry; format: in vivo, mouse
Experimental: as §1

[10] = trichrome staining, Image Pro Plus analysis
[11] = 1 mg/kg IV once a week for 4 weeks

Substance: KKGYYT [KGYY6]
- production of IFNg [1]: varying degrees of reduction
- production of IL2 [1]: varying degrees of reduction
- production of IL17a [1]: varying degrees of reduction
- lesion areas, en-face Sudan IV stain (ApoE-/- mice [2]; ApoE-/- mice, high fat diet 16 weeks, 1 mg/kg IV once a week for 4 weeks): significant reduction in lesion areas
- plaque volume (area under the curve), Paigen method (ApoE-/- mice [2]; ApoE-/- mice, high fat diet, aortic root cross sections): reduction in plaque volume under the curve
- plaque composition: collagen (ApoE-/- mice [2]; [10]): increased collagen
- plaque composition: smooth muscle content (ApoE-/- mice [2]; [10]): reduced smooth muscle content
- reduction in LDL cholesterol values (ApoE-/- mice [3]): > 50%
- development / onset of diabetes (NOD mice [4]): prevents diabetes onset in NOD mice

Substance: VLQWAKKGYYTMK [13-mer]
- development / onset of diabetes (NOD mice [4]): significant effects on the development of diabetes

Substance: VLQWAKKGYYTMKSN (VLQWAKKGYYTMKSK) [15-mer, 15-mer peptide from mouse CD154]
- B cells that bound the peptide (B cells): 8%
- CD40+ T-cells that bind the peptide (CD40+ T-cells): 90%
- average cap width (cap size) (ApoE-/- mice [5]; [11]): greater
- average core width (core size/plaque size) (ApoE-/- mice [5]; [11]): decreased
- cap to core ratio of advanced plaques (ApoE-/- mice [5]; [11]): reduced
- number of individual early plaques and advanced plaques (ApoE-/- mice [5]; 1 mg/kg IV once a week for 4 weeks from 20 weeks of age): reduced
- atherosclerosis (ApoE deficient mice; 1 mg/kg IV three times a week): abrogates atherosclerosis
- total area of the 2.5 mm segment of the lesser curvature of the aortic arch (ApoE deficient mice; 1 mg/kg IV three times a week from 9 weeks of age): substantially reduced
- total number of plaque (ApoE deficient mice; 1 mg/kg IV three times a week, plaque within 2.5 mm segment): significantly decreased
- insulin granulation of the pancreas (NOD mice [6]): preserved insulin granules in the majority of the mice
- clotting of whole human blood [7]: does not modify or change the clotting of whole human blood significantly outside of normally recognized levels
- development / onset of diabetes (NOD mice [4]): prevented the onset of diabetes
- development / onset of diabetes (NOD mice [4]; listed as KGYY15): prevents diabetes onset in NOD mice
- reversal of hyperglycemia (NOD mice [8]; already diabetic NOD mice, 100 ug iv weekly for ten weeks): can reverse hyperglycemia
- return of hyperglycemia after cessation of the treatment (NOD mice [8]; diabetic NOD mice, treatment stopped after ten weeks): ≤ 7 weeks
- recipients with reversal of hyperglycemia (NOD mice [8]; six NOD mice injected at onset of diabetes): 80%
- peptide binding activity of blood cells (blood cells): higher 15-mer peptide binding activity than cells from non-diabetic controls
- compromise of the immune system as determined by the CD4/CD8 ratio (NOD mice [9]): did not result in compromise of the immune system
